Here are results for 18 compounds from ChEMBL document CHEMBL3112477, “Rat intestinal sucrase inhibition of constituents from the roots of Rosa rugosa Thunb” (Bioorg Med Chem Lett, 2014).

Assay [1] has as its target Sucrase-isomaltase, intestinal (Rattus norvegicus, UniProt P23739). As to the kind of experiment: Inhibition of rat intestinal sucrase using p-nitrophenyl-alpha-d-glucopyranoside as substrate incubated for 10 mins prior to substrate addition measured after 5 mins by spectrophotometry.
Assay [2] concerns the target Sucrase-isomaltase, intestinal (Rattus norvegicus) (UniProt P23739). Briefly: Inhibition of rat intestinal sucrase using p-nitrophenyl-alpha-d-glucopyranoside as substrate at 1 mM incubated for 10 mins prior to substrate addition measured after 5 mins by spectrophotometry.

Chain of Sucrase-isomaltase, intestinal (Rattus norvegicus) (P23739 1-1013 limits assumed): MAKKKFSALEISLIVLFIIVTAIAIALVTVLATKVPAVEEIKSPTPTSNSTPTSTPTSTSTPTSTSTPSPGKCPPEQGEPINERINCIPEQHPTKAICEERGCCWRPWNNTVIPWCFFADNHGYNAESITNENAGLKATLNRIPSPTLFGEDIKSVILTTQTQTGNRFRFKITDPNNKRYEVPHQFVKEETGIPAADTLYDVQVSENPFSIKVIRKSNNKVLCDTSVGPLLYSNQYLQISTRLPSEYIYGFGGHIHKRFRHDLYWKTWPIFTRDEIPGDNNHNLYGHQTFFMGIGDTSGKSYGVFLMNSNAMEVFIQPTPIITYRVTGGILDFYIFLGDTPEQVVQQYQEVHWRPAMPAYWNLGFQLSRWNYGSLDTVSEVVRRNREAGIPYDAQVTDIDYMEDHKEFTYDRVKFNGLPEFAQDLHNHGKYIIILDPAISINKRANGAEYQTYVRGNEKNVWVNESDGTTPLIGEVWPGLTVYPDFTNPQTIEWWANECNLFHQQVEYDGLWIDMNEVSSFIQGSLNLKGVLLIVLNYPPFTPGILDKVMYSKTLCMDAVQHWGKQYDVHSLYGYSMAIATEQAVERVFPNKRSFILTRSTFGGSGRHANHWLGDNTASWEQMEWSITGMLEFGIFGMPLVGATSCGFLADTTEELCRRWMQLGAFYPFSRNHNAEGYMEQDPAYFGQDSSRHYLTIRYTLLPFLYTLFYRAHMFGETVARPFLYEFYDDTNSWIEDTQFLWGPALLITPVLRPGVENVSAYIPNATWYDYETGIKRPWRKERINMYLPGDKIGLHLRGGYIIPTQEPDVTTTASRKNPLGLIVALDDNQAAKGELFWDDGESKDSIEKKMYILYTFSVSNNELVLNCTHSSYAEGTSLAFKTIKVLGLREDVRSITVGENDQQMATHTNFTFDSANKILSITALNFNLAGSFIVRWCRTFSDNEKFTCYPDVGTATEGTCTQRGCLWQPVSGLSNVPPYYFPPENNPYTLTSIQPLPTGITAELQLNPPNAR
Chain of Sucrase-isomaltase, intestinal (Rattus norvegicus) (P23739 1014-1841 limits assumed): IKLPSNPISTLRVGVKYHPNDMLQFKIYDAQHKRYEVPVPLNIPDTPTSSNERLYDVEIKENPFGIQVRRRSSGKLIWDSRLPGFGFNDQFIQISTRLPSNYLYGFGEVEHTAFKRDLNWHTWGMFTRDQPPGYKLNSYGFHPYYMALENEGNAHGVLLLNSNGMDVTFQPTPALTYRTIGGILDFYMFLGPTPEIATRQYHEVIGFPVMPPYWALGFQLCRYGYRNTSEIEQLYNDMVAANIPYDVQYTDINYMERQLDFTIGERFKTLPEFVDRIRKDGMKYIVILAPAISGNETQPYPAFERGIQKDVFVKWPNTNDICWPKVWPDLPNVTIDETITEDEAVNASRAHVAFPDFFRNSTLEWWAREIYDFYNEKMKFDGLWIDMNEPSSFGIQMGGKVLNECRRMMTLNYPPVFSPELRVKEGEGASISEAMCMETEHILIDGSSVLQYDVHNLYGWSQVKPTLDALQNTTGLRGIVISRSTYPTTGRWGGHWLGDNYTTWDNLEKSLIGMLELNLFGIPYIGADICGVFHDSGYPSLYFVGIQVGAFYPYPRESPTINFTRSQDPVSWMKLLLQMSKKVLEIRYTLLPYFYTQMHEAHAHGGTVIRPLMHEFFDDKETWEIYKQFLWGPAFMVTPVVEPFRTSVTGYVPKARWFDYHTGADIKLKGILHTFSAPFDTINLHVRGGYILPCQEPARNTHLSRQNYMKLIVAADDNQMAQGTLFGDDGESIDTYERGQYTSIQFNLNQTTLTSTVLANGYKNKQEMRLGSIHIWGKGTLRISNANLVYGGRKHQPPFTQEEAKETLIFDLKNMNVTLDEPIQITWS
Chain of Sucrase-isomaltase, intestinal (P23739 1-1013 limits assumed): as the sequence (P23739 1-1013 limits assumed) above
Chain of Sucrase-isomaltase, intestinal (P23739 1014-1841 limits assumed): as the sequence (P23739 1014-1841 limits assumed) above

For the compound `CC1=CC(=O)CC(C)(C)[C@H]1/C=C/[C@H](C)O[C@@H]1O[C@H](CO)[C@@H](O)[C@H](O)[C@H]1O`, the IC50 in assay [1] was > 1000 µM. For the same compound, the inhibition in assay [2] stood at 14%.

In assay [1], `Oc1cc(O)c2c(c1)O[C@@]1(c3ccc(O)c(O)c3)Oc3cc(O)c4c(c3[C@@H]2[C@H]1O)O[C@@H](c1ccc(O)c(O)c1)[C@H](O)[C@H]4c1c(O)cc(O)c2c1O[C@H](c1ccc(O)c(O)c1)[C@H](O)C2` [AESCULTITANNIN B] had an IC50 of 400 µM. For the same compound, in assay [2], the inhibition is 66.8%.

Regarding `Oc1ccc2c(c1)O[C@H](c1ccc(O)c(O)c1)[C@@H](O)[C@@H]2c1c(O)cc2c(c1O)C[C@H](O)[C@@H](c1ccc(O)c(O)c1)O2`, the IC50 in assay [1] came to 520 µM. The inhibition in assay [2] is 72.2%. In the case of `CC1=CC(=O)CC(C)(C)/C1=C\CC(C)O[C@@H]1O[C@H](CO)[C@@H](O)[C@H](O)[C@H]1O` (some centres not stated), the IC50 in assay [1] was > 1000 µM. Moreover, the inhibition in assay [2] turned out to be 28.6%.

Take `CC1(C)[C@@H](O)CC[C@]2(C)[C@H]3CC[C@@H]4C=C[C@H](O)[C@@]4(C)[C@]3(C)CC[C@@H]12`: the IC50 in assay [1] was > 1000 µM. In assay [2], this compound gave an inhibition of 40%. In assay [2], `C[C@H]1O[C@H](O[C@H]2[C@H](O)[C@@H](O)[C@@H](O[C@H]3[C@H](O)[C@@H](O)C(O)O[C@@H]3CO)O[C@@H]2CO)[C@H](O)[C@@H](O)[C@@H]1N[C@H]1C=C(CO)[C@@H](O)[C@H](O)[C@H]1O` (some centres not stated) registered an inhibition of 51%. In assay [1], `Oc1cc(O)c2c(c1)O[C@H](c1ccc(O)c(O)c1)[C@H](O)C2` [(-)-EPICATECHIN] displayed an IC50 of 650 µM. Also, the inhibition in assay [2] amounted to 61.9%. Consider `C=C(C)[C@@H]1CC[C@]2(C(=O)O)CC[C@]3(C)[C@H](CC[C@@H]4[C@@]5(C)CC[C@H](O)C(C)(C)[C@@H]5CC[C@]43C)[C@@H]12`, for which, in assay [2], the inhibition is < 10%.

In the case of `Oc1cc(O)c2c(c1)O[C@H](c1ccc(O)c(O)c1)[C@@H](O)C2` [CIANIDANOL], the IC50 in assay [1] amounted to 310 µM. The inhibition in assay [2] was found to be 80%.

Consider `CC1=CC(=O)CC(C)(C)[C@H]1/C=C/[C@@H](C)O[C@@H]1O[C@H](CO)[C@@H](O)[C@H](O)[C@H]1O`, for which, in assay [1], the IC50 is > 1000 µM. In addition, in assay [2], the inhibition worked out at 12.5%. As for `CC1=CC(=O)CC(C)(C)/C1=C/CC(C)O[C@@H]1O[C@H](CO)[C@@H](O)[C@H](O)[C@H]1O` (some centres not stated), the IC50 in assay [1] is > 1000 µM. In assay [2], this compound returned an inhibition of 28.3%. As to `CC1(C)C=C(C=O)[C@]2(C)[C@H]3CC=C4[C@@H]5[C@H](O)C(C)(C)CC[C@]5(C(=O)O)CC[C@@]4(C)[C@]3(C)CC[C@@H]12`, the IC50 in assay [1] is > 1000 µM. The compound further came in with an inhibition in assay [2] of 32.4%. With `C[C@H]1[C@H](C)CC[C@]2(C(=O)O)CC[C@]3(C)C(=CC[C@@H]4[C@@]5(C)CC[C@H](O)C(C)(C)[C@@H]5CC[C@]43C)[C@H]12` [URSOLIC ACID], the IC50 in assay [1] was > 1000 µM. This compound also registered an inhibition in assay [2] of 32%.

In assay [1], `Oc1ccc([C@H]2Oc3cc(O)ccc3[C@H](c3c(O)cc(O)c4c3O[C@H](c3ccc(O)c(O)c3)[C@H](O)C4)[C@H]2O)cc1` gave an IC50 of 480 µM. The compound further displayed an inhibition in assay [2] of 68.4%.

Turning to `C[C@@H]1CC[C@]2(C(=O)O)CC[C@]3(C)C(=CC[C@@H]4[C@@]5(C)C=C(O)C(=O)C(C)(C)[C@@H]5CC[C@]43C)[C@@H]2[C@]1(C)O`, the inhibition in assay [2] was < 10%. The same measure, in the same setting: in the case of `C[C@@H]1CC[C@]2(C(=O)O)CC[C@]3(C)C(=CC[C@@H]4[C@@]5(C)CC(=O)[C@H](O)C(C)(C)[C@@H]5CC[C@]43C)[C@@H]2[C@]1(C)O` it was < 10%. `Oc1ccc([C@@H]2Oc3cc(O)ccc3[C@H](c3c(O)cc(O)c4c3O[C@H](c3ccc(O)c(O)c3)[C@H](O)C4)[C@H]2O)cc1` had an IC50 in assay [1] of 250 µM. Further, the inhibition in assay [2] worked out at 84.7%. Take `Oc1cc(O)c2c(c1)O[C@H](c1ccc(O)c(O)c1)[C@@H](O)[C@@H]2c1c(O)cc(O)c2c1O[C@H](c1ccc(O)c(O)c1)[C@@H](O)C2`: the IC50 in assay [1] is 430 µM. The same compound gave an inhibition in assay [2] of 76%.
